One compound from publication PMC7206119, “RIP1 inhibition blocks inflammatory diseases but not tumor growth or metastases” (Cell Death and Differentiation, 2019) can be followed below.

Among the targets are AURKB (Homo sapiens, UniProt Q96GD4); BMPR2 (Homo sapiens, UniProt Q13873); CSK (Homo sapiens, UniProt P41240); EGFR(T790M) (Homo sapiens, UniProt P00533, T790M); EPHA8 (Homo sapiens, UniProt P29322); FLT3(R834Q) (Homo sapiens, UniProt P36888, R834Q); HIPK1 (Homo sapiens, UniProt Q86Z02); HIPK2 (Homo sapiens, UniProt Q9H2X6); HIPK3 (Homo sapiens, UniProt Q9H422); LIMK1 (Homo sapiens, UniProt P53667); MAPKAPK5 (Homo sapiens, UniProt Q8IW41); MET(Y1235D) (Homo sapiens, UniProt P08581, Y1235D); PDGFRB (Homo sapiens, UniProt P09619); PIK3CA(E542K) (Homo sapiens, UniProt P42336, E542K); PIK3CA(H1047Y) (Homo sapiens, UniProt P42336, H1047Y); PRKCQ (Homo sapiens, UniProt Q04759).

Common to all, as to assay: biochemical
Parameters in all cases: DiscoverX kinase panel, active-site competition binding (KINOMEscan type), percent of control at one concentration
Common to all, as to conditions: competition binding, percent of control

The target of experiment [1] is T1, ABL1(M351T)-phosphorylated (Homo sapiens, UniProt P00519, M351T).
T1 construct: phosphorylated

The target of another experiment is T2, ASK2 (Homo sapiens, UniProt O95382).
T2 construct: gene MAP3K6

The target of a further experiment is T3, ERK1 (Homo sapiens, UniProt P27361).
T3 construct: gene MAPK3

The next experiment addresses T4, NIK (Homo sapiens, UniProt Q99558).
T4 construct: gene MAP3K14

For the next experiment, the target named is T5, p38-gamma (Homo sapiens, UniProt P53778).
T5 construct: gene MAPK12
T5 sequence (P53778 whole entry): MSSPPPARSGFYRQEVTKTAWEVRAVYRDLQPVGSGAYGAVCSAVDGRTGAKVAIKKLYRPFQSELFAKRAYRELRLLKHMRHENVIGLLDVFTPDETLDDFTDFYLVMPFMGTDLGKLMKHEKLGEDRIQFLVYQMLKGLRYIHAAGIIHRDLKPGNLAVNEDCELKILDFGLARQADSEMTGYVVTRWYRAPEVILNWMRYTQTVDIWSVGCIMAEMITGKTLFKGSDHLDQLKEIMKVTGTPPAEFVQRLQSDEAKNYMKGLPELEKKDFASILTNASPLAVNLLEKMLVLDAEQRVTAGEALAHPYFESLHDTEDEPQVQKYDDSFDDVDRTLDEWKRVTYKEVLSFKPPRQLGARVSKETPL

CSK, sequence (P41240 whole entry): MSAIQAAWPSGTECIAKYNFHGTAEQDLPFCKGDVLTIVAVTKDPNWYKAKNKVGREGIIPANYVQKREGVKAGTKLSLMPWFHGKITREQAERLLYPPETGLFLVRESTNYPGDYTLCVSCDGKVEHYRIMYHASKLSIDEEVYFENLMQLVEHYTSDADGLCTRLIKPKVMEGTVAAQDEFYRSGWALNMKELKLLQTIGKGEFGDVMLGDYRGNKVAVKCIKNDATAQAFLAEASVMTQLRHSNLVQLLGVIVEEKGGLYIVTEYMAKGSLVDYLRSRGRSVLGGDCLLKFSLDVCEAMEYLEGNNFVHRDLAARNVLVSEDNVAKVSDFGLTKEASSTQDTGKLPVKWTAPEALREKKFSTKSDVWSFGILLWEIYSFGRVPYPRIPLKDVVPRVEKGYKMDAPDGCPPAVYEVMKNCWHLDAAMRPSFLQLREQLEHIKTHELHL
AURKB, sequence (Q96GD4 whole entry): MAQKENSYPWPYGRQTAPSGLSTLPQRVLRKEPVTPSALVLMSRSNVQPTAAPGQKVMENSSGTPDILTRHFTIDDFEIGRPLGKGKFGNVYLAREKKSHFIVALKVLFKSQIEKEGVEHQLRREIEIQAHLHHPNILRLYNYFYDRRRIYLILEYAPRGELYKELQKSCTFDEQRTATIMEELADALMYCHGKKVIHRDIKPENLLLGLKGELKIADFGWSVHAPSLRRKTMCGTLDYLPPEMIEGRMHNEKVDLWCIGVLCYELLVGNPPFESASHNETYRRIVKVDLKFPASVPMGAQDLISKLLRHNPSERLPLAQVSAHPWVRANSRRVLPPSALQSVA
HIPK1, sequence (Q86Z02 whole entry): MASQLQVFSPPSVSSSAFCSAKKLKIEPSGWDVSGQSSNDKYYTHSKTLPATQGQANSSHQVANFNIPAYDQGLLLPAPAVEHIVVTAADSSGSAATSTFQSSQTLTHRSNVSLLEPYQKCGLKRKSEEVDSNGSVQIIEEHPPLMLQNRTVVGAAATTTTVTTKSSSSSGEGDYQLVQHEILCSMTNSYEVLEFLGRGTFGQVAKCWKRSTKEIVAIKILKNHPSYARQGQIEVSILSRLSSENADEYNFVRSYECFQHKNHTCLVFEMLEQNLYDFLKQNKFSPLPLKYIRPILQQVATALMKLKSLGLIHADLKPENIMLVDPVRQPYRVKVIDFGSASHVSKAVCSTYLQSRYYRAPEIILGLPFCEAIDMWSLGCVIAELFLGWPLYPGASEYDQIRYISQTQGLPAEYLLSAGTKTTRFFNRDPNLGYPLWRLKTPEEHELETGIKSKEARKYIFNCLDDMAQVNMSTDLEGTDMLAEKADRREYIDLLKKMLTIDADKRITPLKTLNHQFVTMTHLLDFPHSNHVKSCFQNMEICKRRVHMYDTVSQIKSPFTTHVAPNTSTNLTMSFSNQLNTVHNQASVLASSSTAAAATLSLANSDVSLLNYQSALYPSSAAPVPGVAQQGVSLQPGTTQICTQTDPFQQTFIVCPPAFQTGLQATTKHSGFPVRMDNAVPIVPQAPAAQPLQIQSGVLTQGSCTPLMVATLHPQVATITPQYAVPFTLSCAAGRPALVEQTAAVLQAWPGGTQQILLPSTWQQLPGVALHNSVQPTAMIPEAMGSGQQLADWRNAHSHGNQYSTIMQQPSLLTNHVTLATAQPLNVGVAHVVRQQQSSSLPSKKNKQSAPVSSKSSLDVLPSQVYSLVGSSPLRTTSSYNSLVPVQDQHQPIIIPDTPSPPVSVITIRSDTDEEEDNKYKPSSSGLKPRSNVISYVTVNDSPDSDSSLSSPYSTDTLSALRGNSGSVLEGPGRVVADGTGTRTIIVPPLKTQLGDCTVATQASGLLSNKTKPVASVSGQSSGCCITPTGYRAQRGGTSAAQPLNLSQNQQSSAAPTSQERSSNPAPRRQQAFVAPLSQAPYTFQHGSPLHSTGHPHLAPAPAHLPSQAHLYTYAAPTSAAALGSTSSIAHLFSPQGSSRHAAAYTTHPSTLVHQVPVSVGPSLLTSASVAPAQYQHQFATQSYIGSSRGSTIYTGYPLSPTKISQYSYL
PIK3CA(H1047Y), sequence (P42336 whole entry H1047Y): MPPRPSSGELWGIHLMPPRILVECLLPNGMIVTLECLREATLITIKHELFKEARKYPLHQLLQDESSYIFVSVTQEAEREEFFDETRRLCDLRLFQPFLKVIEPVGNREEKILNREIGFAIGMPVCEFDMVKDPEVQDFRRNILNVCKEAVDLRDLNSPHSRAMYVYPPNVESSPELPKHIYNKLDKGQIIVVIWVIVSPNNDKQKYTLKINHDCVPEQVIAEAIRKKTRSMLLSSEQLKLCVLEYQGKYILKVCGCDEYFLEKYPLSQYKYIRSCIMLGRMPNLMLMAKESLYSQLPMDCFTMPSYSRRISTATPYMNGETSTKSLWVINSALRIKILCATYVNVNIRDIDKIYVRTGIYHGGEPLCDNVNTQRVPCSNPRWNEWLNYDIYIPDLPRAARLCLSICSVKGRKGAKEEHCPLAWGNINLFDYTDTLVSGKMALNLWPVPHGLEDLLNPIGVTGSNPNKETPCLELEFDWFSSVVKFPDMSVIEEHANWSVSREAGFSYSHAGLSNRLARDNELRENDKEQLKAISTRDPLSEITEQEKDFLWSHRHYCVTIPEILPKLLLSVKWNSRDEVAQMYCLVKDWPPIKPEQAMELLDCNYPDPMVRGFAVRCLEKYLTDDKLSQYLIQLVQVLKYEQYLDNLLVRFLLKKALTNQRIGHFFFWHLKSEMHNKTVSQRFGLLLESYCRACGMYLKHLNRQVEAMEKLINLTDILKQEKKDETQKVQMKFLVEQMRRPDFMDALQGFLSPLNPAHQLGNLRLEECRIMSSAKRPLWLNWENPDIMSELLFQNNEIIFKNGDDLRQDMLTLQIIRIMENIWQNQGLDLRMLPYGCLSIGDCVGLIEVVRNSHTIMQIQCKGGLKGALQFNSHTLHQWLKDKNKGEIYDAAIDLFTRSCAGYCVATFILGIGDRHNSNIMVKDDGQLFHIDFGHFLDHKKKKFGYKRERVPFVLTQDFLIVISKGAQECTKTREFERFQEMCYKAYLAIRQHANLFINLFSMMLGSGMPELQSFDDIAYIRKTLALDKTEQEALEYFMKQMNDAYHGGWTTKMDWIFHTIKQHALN
PDGFRB, sequence (P09619 whole entry): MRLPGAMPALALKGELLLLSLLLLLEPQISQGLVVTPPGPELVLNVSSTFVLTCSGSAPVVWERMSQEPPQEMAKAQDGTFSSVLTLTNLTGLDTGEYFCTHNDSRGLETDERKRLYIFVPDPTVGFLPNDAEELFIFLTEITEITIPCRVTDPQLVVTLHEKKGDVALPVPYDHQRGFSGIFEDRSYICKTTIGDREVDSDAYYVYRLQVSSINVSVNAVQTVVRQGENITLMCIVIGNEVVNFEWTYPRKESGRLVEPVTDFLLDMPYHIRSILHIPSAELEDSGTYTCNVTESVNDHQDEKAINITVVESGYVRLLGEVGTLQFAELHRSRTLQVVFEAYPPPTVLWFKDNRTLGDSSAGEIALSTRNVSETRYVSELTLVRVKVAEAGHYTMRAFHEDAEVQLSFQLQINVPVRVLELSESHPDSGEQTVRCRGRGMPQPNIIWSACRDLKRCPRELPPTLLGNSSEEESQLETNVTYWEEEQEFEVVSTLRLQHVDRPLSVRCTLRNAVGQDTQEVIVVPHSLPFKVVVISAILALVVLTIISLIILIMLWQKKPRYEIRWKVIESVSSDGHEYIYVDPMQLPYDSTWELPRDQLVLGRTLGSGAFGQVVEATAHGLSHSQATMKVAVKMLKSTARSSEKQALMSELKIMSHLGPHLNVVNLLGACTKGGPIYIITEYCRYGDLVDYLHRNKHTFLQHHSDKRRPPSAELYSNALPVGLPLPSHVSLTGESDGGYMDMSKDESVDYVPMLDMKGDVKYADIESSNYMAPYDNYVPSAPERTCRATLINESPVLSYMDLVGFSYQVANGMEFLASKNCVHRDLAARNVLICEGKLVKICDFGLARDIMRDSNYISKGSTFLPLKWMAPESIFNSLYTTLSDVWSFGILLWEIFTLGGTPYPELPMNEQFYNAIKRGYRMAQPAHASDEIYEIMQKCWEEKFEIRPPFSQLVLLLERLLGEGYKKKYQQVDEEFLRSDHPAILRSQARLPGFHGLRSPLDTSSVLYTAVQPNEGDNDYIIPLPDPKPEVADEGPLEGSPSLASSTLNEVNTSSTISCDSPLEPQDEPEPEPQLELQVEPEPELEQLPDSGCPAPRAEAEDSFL
MAPKAPK5, sequence (Q8IW41 whole entry): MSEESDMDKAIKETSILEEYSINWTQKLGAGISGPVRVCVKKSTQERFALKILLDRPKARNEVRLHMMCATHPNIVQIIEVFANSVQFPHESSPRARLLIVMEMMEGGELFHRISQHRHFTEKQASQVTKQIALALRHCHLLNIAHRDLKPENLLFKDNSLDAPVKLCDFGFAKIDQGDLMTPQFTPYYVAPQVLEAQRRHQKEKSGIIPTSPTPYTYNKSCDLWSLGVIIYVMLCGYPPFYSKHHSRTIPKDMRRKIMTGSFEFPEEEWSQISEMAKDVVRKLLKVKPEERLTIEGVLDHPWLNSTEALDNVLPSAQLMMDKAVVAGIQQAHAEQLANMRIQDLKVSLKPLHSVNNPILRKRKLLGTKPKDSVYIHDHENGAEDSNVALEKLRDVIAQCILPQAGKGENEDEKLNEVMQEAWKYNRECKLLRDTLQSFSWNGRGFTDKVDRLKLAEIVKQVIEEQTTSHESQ
PIK3CA(E542K), sequence (P42336 whole entry E542K): as the sequence (P42336 whole entry H1047Y) above, with E542K, Y1047H counted along it

Consider `COc1cc2c(cn1)N(C)C(=O)[C@@H](NC(=O)c1nc3n(n1)[C@H](c1ccccc1)CC3)CC2` [GNE684, (S)-N-((S)-7-methoxy-1-methyl-2-oxo-2,3,4,5-tetrahydro-1H-pyrido[3,4-b]azepin-3-yl)-5-phenyl-6,7-dihydro-5H-pyrrolo[1,2-b][1,2,4]triazole-2-carboxamide], for which the remaining binding at 10 µM in [1] came to 100%; on ASK2, 98%; on AURKB, 84%; on BMPR2 it was 100%; on CSK, 100%; on EGFR(T790M) it was 100%. The remaining binding at 10 µM on EPHA8 came out at 100%; on ERK1, 96%; at FLT3(R834Q), 100%; at HIPK1 it was 82%; at HIPK2, 82%; on HIPK3, 100%. Moreover, the remaining binding at 10 µM on LIMK1 turned out to be 96%; on MAPKAPK5, 100%; on MET(Y1235D), 82%; at NIK it was 100%; at PDGFRB it was 94%; on PIK3CA(E542K), 41%. In addition, the results for the remaining binding at 10 µM on PIK3CA(H1047Y), on PRKCQ and on p38-gamma were 93%, 100% and 98%, respectively.
